Results on four compounds are retold here after EPA's ToxRefDB 2.

The test system of data set [1] is rat. As to conditions: Subchronic oral toxicity in rodents, fischer, Feed, dose end: 13 week, group: systemic.
Data set [2] relates to mouse. Conditions: Subchronic oral toxicity in rodents, b6c3f1, Feed, dose end: 13 week, group: systemic.
For data set [3], the system named is rat. As to conditions: Subchronic oral toxicity in rodents, fischer, Feed, dose end: 13 week, group: systemic. The source holds these as a separate data set.
The subject of data set [4] is mouse. As to conditions: Multigenerational reproductive toxicity study, cd1, Oral, Feed, dose end: 1 generation.
Data set [5] relates to rat. Conditions: Carcinogenicity, sprague dawley, Oral, Gavage/Intubation, dose end: 105 week, group: systemic.
A further data set relates to rabbit. Conditions: Subchronic dermal toxicity, new zealand white, Topical, dose end: 13 week, group: systemic, systemic / in life observation / clinical signs / desquamation + systemic / in life observation / clinical signs / erythema + systemic / in ….
Data set [6] has as its system rat. As to conditions: Combined chronic toxicity/carcinogenicity, sprague dawley, Oral, Feed, dose end: 24 month.
In data set [7] the test system is dog. As to conditions: Subchronic oral toxicity in nonrodent, beagle, Feed, dose end: 6 month, group: cholinesterase, cholinesterase / cholinesterase / cholinesterase / erythrocyte cholinesterase (che) + cholinesterase / cholinesterase / cholinesterase / ….
Data set [8] relates to mouse. As to conditions: Combined chronic toxicity/carcinogenicity, cd1, Oral, Feed, dose end: 91 week.
Data set [9] relates to rat. As to conditions: Multigenerational reproductive toxicity study, wistar, Oral, Feed, dose end: 2 generation.
Data set [10] relates to dog. As to conditions: Chronic toxicity, beagle, Oral, Feed, dose end: 52 week.
Data set [11] has as its system mouse. As to conditions: Subchronic oral toxicity in rodents, cd1, Feed, dose end: 8 week.
The mark [12] stands for this setting: systemic / pathology microscopic / kidney / dilatation + systemic / pathology microscopic / kidney / hyaline droplet + systemic / pathology ….
[13] abbreviates: systemic / pathology microscopic / kidney / regeneration + systemic / clinical chemistry / thyroxine (t4) / thyroxine (t4), free + systemic….
Setting [14] is: systemic / clinical chemistry / alanine aminotransferase (alt/sgpt) / alanine aminotransferase (alt/sgpt) + systemic / clinical chemistry / ….
Setting [15] is: systemic / in life observation / body weight / body weight + systemic / organ weight / liver / absolute.
Setting [16] is: systemic / pathology microscopic / kidney / cytoplasmic alteration + systemic / pathology microscopic / kidney / dilatation + systemic / ….
Setting [17] is: systemic / pathology microscopic / kidney / regeneration + systemic / urinalysis / aspartate aminotransferase (ast/sgot) / aspartate ….
Where [18] appears, read: group: offspring, systemic / in life observation / body weight / offspring (pup) weight + systemic / in life observation / body weight / offspring (pup) ….
[19] abbreviates: group: parental, systemic / in life observation / body weight / body weight + systemic / in life observation / mortality / mortality + systemic / in life ….
Setting [20] is: group: reproductive, reproductive / offspring survival early / birth index / live birth index.
The mark [21] stands for this setting: systemic / clinical chemistry / [other] / [other] + systemic / clinical chemistry / thyroxine (t4) / thyroxine (t4), total + systemic / ….
[22] abbreviates: systemic / clinical chemistry / [other] / [other] + systemic / organ weight / liver / relative to body weight + systemic / clinical ….
The mark [23] stands for this setting: group: cholinesterase, cholinesterase / cholinesterase / cholinesterase / plasma cholinesterase (che).
[24] abbreviates: group: cholinesterase, cholinesterase / cholinesterase / cholinesterase / plasma cholinesterase (che) + cholinesterase / cholinesterase / cholinesterase / brain ….
[25] abbreviates: group: systemic, systemic / pathology microscopic / pancreas / atrophy.
Where [26] appears, read: group: systemic, systemic / pathology microscopic / pancreas / atrophy + systemic / pathology microscopic / pancreas / adenoma + systemic / in life ….
The mark [27] stands for this setting: group: cholinesterase, cholinesterase / cholinesterase / cholinesterase / brain cholinesterase (che) + cholinesterase / cholinesterase / cholinesterase / ….
The mark [28] stands for this setting: group: systemic, systemic / pathology microscopic / intestine small / hyperplasia + systemic / in life observation / mortality / mortality + systemic / ….
Setting [29] is: group: systemic, systemic / pathology microscopic / intestine small / hyperplasia + systemic / pathology microscopic / bone marrow / hyperplasia.
[30] abbreviates: group: cholinesterase, cholinesterase / cholinesterase / cholinesterase / cholinesterase (che).
[31] abbreviates: group: cholinesterase, cholinesterase / cholinesterase / cholinesterase / cholinesterase (che) + cholinesterase / cholinesterase / cholinesterase / brain ….
Where [32] appears, read: group: offspring, developmental / offspring survival late / lactation index / lactation index + developmental / offspring survival late / [other] / [other] + ….
The mark [33] stands for this setting: group: offspring, systemic / in life observation / clinical signs / no milk in stomach.
[34] abbreviates: group: parental, systemic / in life observation / body weight / body weight gain + systemic / in life observation / clinical signs / hyperreflexitivity.
The mark [35] stands for this setting: group: reproductive, reproductive / offspring survival early / litter size / litter size.
[36] abbreviates: group: cholinesterase, cholinesterase / cholinesterase / cholinesterase / erythrocyte cholinesterase (che) + cholinesterase / cholinesterase / cholinesterase / ….
[37] abbreviates: group: reproductive, reproductive / reproductive performance / estrous cycle / abnormal.
[38] abbreviates: group: systemic, systemic / organ weight / liver / absolute + systemic / organ weight / liver / relative to brain weight.
[39] abbreviates: group: systemic, systemic / organ weight / liver / absolute + systemic / organ weight / liver / relative to brain weight + systemic / clinical chemistry / ….
[40] abbreviates: group: cholinesterase, cholinesterase / cholinesterase / cholinesterase / plasma cholinesterase (che) + cholinesterase / cholinesterase / cholinesterase / ….
[41] abbreviates: group: systemic, systemic / in life observation / body weight / body weight + systemic / in life observation / body weight / body weight gain + systemic / in….

Consider `Clc1cc(Cl)c(Cl)cc1Cl` [1,2,4,5-Tetrachlorobenzene], for which the LOAEL (as a rule, the lowest dose or exposure tested at which an adverse effect was seen) in the data set with rat [1] (setting [12]) is 7.1 mg/kg/day; with mouse [2] (setting [14]), > 450 mg/kg/day; with rat [3] (setting [16]), 7.1 mg/kg/day; in the data set with mouse [4] (setting [18]) it was > 250 mg/kg/day; with mouse [4] (setting [19]), > 250 mg/kg/day; with mouse [4] (setting [20]) it was > 250 mg/kg/day. Also, the NOAEL (usually the highest dose or exposure tested at which no adverse effect was seen) with rat [1] (setting [12]) was 2.1 mg/kg/day; with mouse [2] (setting [14]), ≥ 450 mg/kg/day; in the data set with rat [3] (setting [16]) it was 2.1 mg/kg/day; with mouse [4] (setting [18]), ≥ 250 mg/kg/day; in the data set on mouse [4] (setting [19]), ≥ 250 mg/kg/day; in the data set with mouse [4] (setting [20]), ≥ 250 mg/kg/day. Moreover, the LEL in the data set with rat [1] (setting [13]) was determined as 2.1 mg/kg/day; in the data set on mouse [2] (setting [15]), 4 mg/kg/day; in the data set on rat [3] (setting [17]), 2.1 mg/kg/day; with mouse [4] (setting [18]), 100 mg/kg/day; in the data set on mouse [4] (group: parental, systemic / in life observation / body weight / body weight + systemic / organ weight / testes / absolute), 100 mg/kg/day; in the data set with mouse [4] (setting [20]) it was 100 mg/kg/day. The NEL in the data set with rat [1] (setting [13]) is < 2.1 mg/kg/day; in the data set on mouse [2] (setting [15]) it was < 4 mg/kg/day; in the data set with rat [3] (setting [17]) it was < 2.1 mg/kg/day; in the data set with mouse [4] (setting [18]), 40 mg/kg/day; with mouse [4] (group: parental, systemic / in life observation / body weight / body weight + systemic / in life observation / mortality / mortality), 40 mg/kg/day; in the data set on mouse [4] (setting [20]) it was 40 mg/kg/day.
With `Clc1cc2oc3c(Cl)c(Cl)c(Cl)cc3c2cc1Cl` [2,3,4,7,8-Pentachlorodibenzofuran], in the data set on rat [5] (setting [21]), the LOAEL was > 0.0002 mg/kg/day and the no observed adverse effect level (NOAEL) is ≥ 0.0002 mg/kg/day. Moreover, in the data set with rat [5] (setting [22]), the LEL worked out at 6e-06 mg/kg/day and the NEL is < 6e-06 mg/kg/day.
Regarding `CC(=O)O.CC(=O)O.NC(=NCCCCCCN=C(N)/N=C(\N)Nc1ccc(Cl)cc1)/N=C(\N)Nc1ccc(Cl)cc1` [Chlorhexidine diacetate], in the data set on rabbit, the LEL was 250 mg/kg/day, the LOAEL came out at 250 mg/kg/day, the NEL is < 250 mg/kg/day and the NOAEL was < 250 mg/kg/day.
For the compound `CCNP(=S)(OC)O/C(C)=C/C(=O)OC(C)C` (stereo not drawn) [Propetamphos], the LEL in the data set on rat [6] (setting [23]) was determined as 0.632 mg/kg/day; with rat [6] (setting [25]), 0.689 mg/kg/day; with dog [7], 0.083 mg/kg/day; in the data set with mouse [8] (setting [27]), 1 mg/kg/day; in the data set on mouse [8] (setting [29]), 6 mg/kg/day; in the data set with rat [9] (setting [30]), 2.1 mg/kg/day. The LEL in the data set with rat [9] (setting [33]) was 0.5 mg/kg/day; in the data set on rat [9] (group: parental, systemic / in life observation / body weight / body weight gain), 3.7 mg/kg/day; in the data set with rat [9] (setting [35]), 0.5 mg/kg/day; in the data set on dog [10] (setting [36]) it was 0.59 mg/kg/day; with dog [10] (setting [37]) it was 3.39 mg/kg/day; with dog [10] (setting [38]) it was 0.59 mg/kg/day. The LEL is 1 mg/kg/day with mouse [11] (setting [40]) and 59 mg/kg/day in the data set on mouse [11] (setting [41]). Further, the LOAEL with rat [6] (setting [23]) was 0.632 mg/kg/day; in the data set with rat [6] (setting [25]), 0.689 mg/kg/day; in the data set with dog [7] it was 0.165 mg/kg/day; in the data set with mouse [8] (setting [27]), 1 mg/kg/day; in the data set with mouse [8] (setting [29]), 6 mg/kg/day; in the data set on rat [9] (setting [30]), 2.1 mg/kg/day. The LOAEL in the data set on rat [9] (setting [32]) is 8 mg/kg/day; with rat [9] (setting [34]), 7.1 mg/kg/day; with rat [9] (group: reproductive, reproductive / reproductive performance / implantations / implantations + reproductive / reproductive performance / mating / mating + …), 11.3 mg/kg/day; in the data set on dog [10] (setting [36]) it was 0.59 mg/kg/day; with dog [10] (setting [37]), > 3.39 mg/kg/day; with dog [10] (setting [38]), 0.59 mg/kg/day. In addition, the LOAEL is 1 mg/kg/day in the data set on mouse [11] (setting [40]) and 59 mg/kg/day in the data set on mouse [11] (group: systemic, systemic / in life observation / body weight / body weight + systemic / in life observation / body weight / body weight gain). Moreover, the NEL in the data set on rat [6] (setting [24]) is 0.376 mg/kg/day; in the data set on rat [6] (setting [26]), 0.412 mg/kg/day; with dog [7] it was < 0.083 mg/kg/day; in the data set on mouse [8] (setting [27]), 0.05 mg/kg/day; in the data set on mouse [8] (setting [28]) it was 1 mg/kg/day; in the data set on rat [9] (setting [31]) it was 0.3 mg/kg/day. The NEL was < 0.5 mg/kg/day in the data set on rat [9] (setting [33]); 0.5 mg/kg/day in the data set on rat [9] (group: parental, systemic / in life observation / body weight / body weight gain + systemic / in life observation / clinical signs / hyperreflexitivity + …); < 0.5 mg/kg/day with rat [9] (setting [35]); 0.13 mg/kg/day with dog [10] (setting [36]); 0.67 mg/kg/day with dog [10] (setting [37]); 0.13 mg/kg/day in the data set with dog [10] (setting [39]). In addition, the NEL is < 1 mg/kg/day in the data set on mouse [11] (setting [40]) and 28 mg/kg/day in the data set with mouse [11] (setting [41]). Also, the NOAEL worked out at 0.376 mg/kg/day with rat [6] (setting [24]); 0.412 mg/kg/day in the data set with rat [6] (setting [26]); 0.083 mg/kg/day in the data set with dog [7]; 0.05 mg/kg/day in the data set on mouse [8] (setting [27]); 1 mg/kg/day in the data set with mouse [8] (setting [28]); 0.3 mg/kg/day in the data set on rat [9] (setting [31]). The NOAEL with rat [9] (setting [32]) is 3 mg/kg/day; in the data set on rat [9] (setting [34]) it was 2.8 mg/kg/day; with rat [9] (group: reproductive, reproductive / reproductive performance / implantations / implantations + reproductive / reproductive performance / mating / mating), 3.7 mg/kg/day; with dog [10] (setting [36]), 0.13 mg/kg/day; in the data set with dog [10] (setting [37]), ≥ 3.39 mg/kg/day; in the data set with dog [10] (setting [39]), 0.13 mg/kg/day. Moreover, the NOAEL in the data set with mouse [11] (setting [40]) is < 1 mg/kg/day; with mouse [11] (setting [41]), 28 mg/kg/day.
